Measured values: patent publication US6716574B2, “Osp-C derived peptide fragments” (Dako A/S, priority 1996, dated 2004)
Square brackets hold non-standard residues; d marks the D form. Thz = O=C(O)[C@@H]1CSCN1

Assays:
[1] = system: polyclonal anti-OspC antibodies (IgM) in sera from LB patients; test: Inhibition of binding of anti-OspC antibodies in patient sera to rOspC-coated ELISA plates; design: species or system human; conditions: for number of sera in which binding to rOspCfl was inhibited: of 5 antisera
Excerpt: Therefore, a set of experiments have been carried out where the ability have been tested of a number of analogues of the C-terminus of SEQ ID NO: 3 to inhibit the immune reactivity between rOspCfl and selected antisera in an ELISA. More specifically, the ability of the various analogues to inhibit the binding of polyclonal anti-OspC antibodies in solution was examined in sera from LB patients to rOspC-coated ELISA plates.
The immunoreactivity to OspC was specified by using six randomly selected NB sera with an OD>1.5 in the IgM rOspC ELISA. The respective serum dilutions were determined, based on a serum dilution curve obtained in the IgM rOspC ELISA, for each of the six sera. The highest dilution, which still achieved the maximal OD value was used. 5 sera were diluted 1:200, and one serum 1:1000. The sera were diluted in the buffer used for the IgM rOspC ELISAs.
The affinity of the OspC derivatives was measured by incubation of each of the six sera with the respective OspC derivatives at 10 different dilutions (covering a two-fold range) overnight at 4° C. The rOspC ELISA was then performed as described previously, in order to determine the effect of the IgM binding to OspC.

[2] = system: IgM antibodies to OspC in sera from patients; test: Indirect ELISA for IgM antibodies to full-length and truncated recombinant OspC (rOspC ELISA); format: binding, human; conditions: for immunoassay results compared with rOspCfl from B. garinii: sera of Example 2
Experimental: Indirect ELISA for IgM Antibodies to Full-length and Truncated Recombinant OspC (rOspC ELISA)
Flat-bottom microdilution plates (Maxisorb; Nunc, Roskilde, Denmark) were coated with 100 μl of rOspC diluted in 0.05 M bicarbonate pH 9.6 for 1 hour at 20° C. on a rocker platform and thereafter overnight at 4° C. The optimum coating concentration was defined as the antigen dilution resulting in the highest ratio of the optical density (OD) between a positive and a negative control serum (P/N ratio). The plates were washed four times à one minute with PBS containing 0.5 M NaCL, and 0.1% (vol/vol) Tween 20 (pH 7.2) and unspecific protein binding was blocked with 100 μl 3% (wt/vol) milk powder in PBS for 1 hour. The plates were washed four times à one minute with PBS containing 0.5 M NaCL, and 0.1% (vol/vol) Tween 20 (pH 7.2). 100 μl of serum diluted 1:200 in PBS containing 0.1% (vol/vol) Tween 20, 0.02% NaN3 and 1% (wt/vol) milk powder was added to the wells and incubated for 2 h at 20° C. The plates were washed four times à one minute with PBS containing 0.5 M NaCL, and 0.1% (vol/vol) Tween 20 (pH 7.2) and 100 μl peroxidase conjugated rabbit anti-human immunoglobulin M (IgM) (Dakopats, Copenhagen, Denmark, code P-215) diluted 1:1000 in PBS pH 7.4 with 0.05% (vol/vol) Tween 20 and 1% (wt/vol) milk powder. After the incubation for 1 h at 20° C. the plates were washed four times à one minute with PBS containing 0.5 M NaCL, and 0.1% (vol/vol) Tween 20 (pH 7.2) and 200 μl of the substrate o-phenylenediamine (0.41 mg/ml; Sigma) in citrate buffer (pH 5) with 0.04% (vol/vol) H2O2) was added to each well. After 15 minutes protected from light, the enzymatic reaction was stopped by the addition of 50 μl of 3M H2SO4. The optical density (OD) at 492 nm was read spectrophotometrically (Immuno Reader, Easy reader EAR 400 AC—SLT Labinstruments, AUSTRIA). Samples were tested in duplicate and retested, if the two OD values differed more than 10% from the mean. To eliminate plate-to-plate and day-to-day variations, a reference serum pool based on seven western blot positive sera were included on every plate for construction of a standard dilution curve with a two fold dilution ranging from 1:200 to 1:6400. The OD value of every sample was adjusted to this standard curve. Positive and negative control sera were included on every plate. The positive control sera were diluted 1:200, 1:400 and 1:800 on every plate to check for parallelism between the standard reference curve and the dilution curve of the positive control sera.
The diagnostic cutoff OD was adjusted to be 98% specific for an IgM assay on the basis of serum samples from 100 healthy danish blood donors, and was 0.230 for the IgM assay.
In a preliminary setup, rOspCt was used in the above-described rOspC ELISA. Sera from 47 patients with EM, 50 with NB, 30 with ACA and 29 with syphilis were tested against rOspCt.
The capability of an immunological agent according to the present invention to react with sera from patients in various stages of Lyme borreliosis was evaluated against that of recombinant OspC derived from B. garinii and against conventional flagellum ELISAs (performed as described in Hansen K. et al. (1991) and Hansen K. et al. (1988)). These flagellum assays (testing for IgM and IgG antibodies to native B. burgdorferi flagellum) are commercially available, a μ-capture ELISA (DAKO, Denmark code K006), and an indirect IgG ELISA (DAKO, Denmark code K416). Both assays use flagella purified from strain DK1 belonging to the genospecies of B. afzelii. The ELISAs were performed according to the instructions of the manufacturer, and the results were expressed as optical density (OD) values. In both assays the diagnostic cut-off level was adjusted to a specificity of 98% based on the examination of 100 blood donors.

9-arg: variant of SEQ ID NO: 1 in which 9-lys was substituted with 9-arg (PVVAESPKRP; FRAGMENT TYPE C-terminal; STRAIN DK6, INDIVIDUAL ISOLATE BN1068; listed as Borrelia garinii)
ability to inhibit binding between rOspCfl and the 5 antisera [1]: no effect

NH2-AVVAESPKKP-COOH (H-AVVAESPKKP-OH) [SEQ ID NO: 32]
ability to inhibit binding between rOspCfl and the 5 antisera [1]: capable of inhibiting binding

NH2-PAVAESPKKP-COOH (H-PAVAESPKKP-OH) [SEQ ID NO: 31]
ability to inhibit binding between rOspCfl and the 5 antisera [1]: capable of inhibiting binding

NH2-PKKP-COOH (H-PKKP-OH) [SEQ ID NO: 22]
patient sera in which binding between rOspCfl and antibodies was inhibited ([1]; six NB sera with OD>1.5 in the IgM rOspC ELISA): one single serum

NH2-PPPPESPKKP-COOH (H-PPPPESPKKP-OH) [SEQ ID NO: 39]
inhibition ([1]; Serum 1): 70% inhibition
inhibition ([1]; Serum 2): 100% inhibition
inhibition ([1]; Serum 3): 100% inhibition
inhibition ([1]; Serum 4): 0% inhibition
inhibition ([1]; Serum 5): 40% inhibition

NH2-PVAAESPKKP-COOH (H-PVAAESPKKP-OH) [SEQ ID NO: 30]
ability to inhibit binding between rOspCfl and the 5 antisera [1]: capable of inhibiting binding

NH2-PVVAASPKKP-COOH (H-PVVAASPKKP-OH) [SEQ ID NO: 28]
ability to inhibit binding between rOspCfl and the 5 antisera [1]: capable of inhibiting binding

NH2-PVVAEAPKKP-COOH (H-PVVAEAPKKP-OH) [SEQ ID NO: 27]
ability to inhibit binding between rOspCfl and the 5 antisera [1]: capable of inhibiting binding

NH2-PVVAES*KKP-COOH (H-PVVAES[Thz]KKP-OH; SMILES CC(C)[C@H](NC(=O)[C@@H]1CCCN1)C(=O)N[C@H](C(=O)N[C@@H](C)C(=O)N[C@@H](CCC(=O)O)C(=O)N[C@@H](CO)C(=O)N1CSC[C@H]1C(=O)N[C@@H](CCCCN)C(=O)N[C@@H](CCCCN)C(=O)N1CCC[C@H]1C(=O)O)C(C)C) [* designates L-thiazolidine-4-carboxylic acid]
number of sera in which binding to rOspCfl was inhibited [1]: 5 sera

NH2-PVVAESAKKP-COOH (H-PVVAESAKKP-OH) [SEQ ID NO: 26]
number of sera in which binding to rOspCfl was inhibited [1]: 1 sera

NH2-PVVAESPAKP-COOH (H-PVVAESPAKP-OH) [SEQ ID NO: 25]
number of sera in which binding to rOspCfl was inhibited [1]: 3 sera

NH2-PVVAESPKAP-COOH (H-PVVAESPKAP-OH) [SEQ ID NO: 24]
number of sera in which binding to rOspCfl was inhibited [1]: 1 sera

NH2-PVVAESPKKA-COOH (H-PVVAESPKKA-OH) [SEQ ID NO: 23]
number of sera in which binding to rOspCfl was inhibited [1]: 0 sera

NH2-PVVAESPKKP-CONH2 (H-PVVAESPKKP-NH2) [SEQ ID NO: 33]
ability to inhibit binding between rOspCfl and the 5 antisera [1]: incapable of inhibiting binding

NH2-PVVAESPKNP-COOH (H-PVVAESPKNP-OH) [SEQ ID NO: 38]
inhibition ([1]; Serum 1): 50% inhibition
inhibition ([1]; Serum 2): 0% inhibition
inhibition ([1]; Serum 3): 0% inhibition
inhibition ([1]; Serum 4): 0% inhibition
inhibition ([1]; Serum 5): 0% inhibition

NH2-PVVFESPKKP-COOH (H-PVVFESPKKP-OH) [SEQ ID NO: 29]
ability to inhibit binding between rOspCfl and the 5 antisera [1]: capable of inhibiting binding

NH2-PVVPESPKKP-COOH (H-PVVPESPKKP-OH) [SEQ ID NO: 37]
inhibition ([1]; Serum 1): 70% inhibition
inhibition ([1]; Serum 2): 100% inhibition
inhibition ([1]; Serum 3): 100% inhibition
inhibition ([1]; Serum 4): 0% inhibition
inhibition ([1]; Serum 5): 40% inhibition

B1: rOspCt: recombinant B. garinii OspC truncate which lacks the 7 carboxyterminal amino acids (protein)
chain: CNNSGGDSASTNPDESAKGPNLTVISKKITDSNAFLLAVKEVEALLSSIDELSKAIGKKIKNDGTLDNEANRNESLIAGAYEISKLITQKLSVLNSEELKEKIKEAKDCSEKFTTKLKDSHAELGIQSVQDDNAKKAILKTHGTKDKGAKELEELFKSLESLSKAAQAALTNSVKELTNPVVAESPKKP
modifications: left off: small tags and cut ends
notes: recombinant B. garinii OspC truncate which lacks the 7 carboxyterminal amino acids
Positive rOspCt ELISA results ([2]; ACA sera (N = 30), IgM, B. garinii rOspCt): n = 0 (0.00%)
Positive rOspCt ELISA results ([2]; EM and NB sera (n = 97), IgM, B. garinii rOspCt): n = 4 (4.12%)
Positive rOspCt ELISA results ([2]; EM sera (n = 47), serum panel 1, IgM, B. garinii rOspCt, 98% specific cutoff): n = 1 (2.12%)
Positive rOspCt ELISA results ([2]; NB sera (n = 50), serum panel 1, IgM, B. garinii rOspCt): n = 3 (6.00%)
Positive rOspCt ELISA results ([2]; Syphilis control sera (n = 29), IgM, B. garinii rOspCt): n = 5 (17.24%)

B2: B. afzelii derived rOspCt: recombinant B. afzelii DK26 OspC truncate lacking the seven C-terminal amino acids (protein)
chain: CNNSGKGGDSASTNPADESAKGPNLTEISKKITDSNAFVLAVKEVETLVLSIDELAKKAIGQKIDNNNGLAALNNQNGSLLAGAYAISTLITEKLSKLKNLEELKTEIAKAKKCSEEFTNKLKSGHADLGKQDATDDHAKAAILKTHATTDKGAKEFKDLFESVEGLLKAAQVALTNSVKELTSPVV
modifications: left off: small tags and cut ends
notes: recombinant B. afzelii DK26 OspC truncate lacking the seven C-terminal amino acids
Positive rOspCt ELISA results ([2]; serum panel 1, IgM): no positives

B3: rOspCfl from B. burgdorferi sensu stricto: full-length recombinant OspC from strain DK7 of Borrelia burgdorferi sensu stricto (SEQ ID NO: 5) (protein)
chain: MKKNTLSAILMTLFLFISCNNSGKDGNTSANSADESVKGPNLTEISKKITDSNAVLLAVKEVEALLSSIDELAKAIGKKIKNDGSLGDEANHNESLLAGAYTISTLITQKLSKLNGSEGLKEKIAAAKKCSEEFSTKLKDNHAQLGIQGVTDENAKKAILKANAAGKDKGVEELEKLSGSLESLSKAAKEMLANSVKELTSPVVVESPKKP
modifications: Borrelia burgdorferi sensu stricto
immunoassay results compared with rOspCfl from B. garinii [2]: almost identical picture

B4: rOspCfl from B. afzelii: full-length recombinant OspC from strain DK26 of Borrelia afzelii (SEQ ID NO: 7) (protein, listed as Borrelia afzelii)
chain: MKKNTLSAILMTLFLFISCNNSGKGGDSASTNPADESAKGPNLTEISKKITDSNAFVLAVKEVETLVLSIDELAKKAIGQKIDNNNGLAALNNQNGSLLAGAYAISTLITEKLSKLKNLEELKTEIAKAKKCSEEFTNKLKSGHADLGKQDATDDHAKAAILKTHATTDKGAKEFKDLFESVEGLLKAAQVALTNSVKELTSPVVAESPKKP
immunoassay results compared with rOspCfl from B. garinii [2]: almost identical picture
